As a reminder, the IC50 is the concentration that inhibits the measured activity by half.

Consider six molecules from US20260234165A1, “MACROCYCLIC COMPOUNDS, PREPARATION METHOD THEREFOR, AND USE THEREOF” (GENFLEET THERAPEUTICS (SHANGHAI) INC., priority 2004, published 2026).

The first assay relates to p-ERK in NCI-H441 cells (KRAS G12V mutation). The assay is described as follows: Cell p-ERK assay (HTRF) in NCI-H441 cells. The assay is classed as cell-based, human. The note with it: Homo sapiens, NCI-H441, 3 h, NCI-H441 cells, 3 h compound incubation, HTRF p-ERK T202/Y204; read-out: H441 p-ERK IC50. As for the experimental part: AsPC-1 cells were purchased from ATCC, Cat. No. CRL-1682: NCI-H441 cells were purchased from ATCC, Cat. No. HTB-174: RPMI-1640 medium was purchased from Gibco, Cat. No. I1875-093: FBS was purchased from Gibco, Cat. No. 10099-141C: penicillin/streptomycin double-antibiotic solution (PS) was purchased from Gibco, Cat. No. 15140-122: trypsin (containing EDTA) was purchased from Gibco, Cat. No. 25200-072; DMSO was purchased from VWRAMRESCO, Cat. No. 0231-500ML; 96-well cell culture plates were purchased from Corning, Cat. No. 3599: white-bottomed, opaque 96-well plates were purchased from Cisbio, Cat. No. 66PL96025; Advance ERK phospho-T202/Y204 kit was purchased from Cisbio, Cat. No. 64AERPEH; cell counter was purchased from CHEMOMETEC, model: NC-200; microplate reader was purchased from PerkinElmer, model: EnVision.
AsPC-1, a human pancreatic cancer cell strain endogenously containing a KRAS^G12D mutation, was cultured in a complete medium containing RPMI-1640+10% FBS+1% PS. NCI-H441, a human non-small cell lung cancer cell strain endogenously containing a KRAS^G12V mutation, was cultured in a complete medium containing RPMI-1640+10% FBS+1% PS.
The cells were digested with trypsin (containing EDTA), collected in their corresponding complete media, and counted. The density of the cell suspensions was adjusted with their corresponding complete media, and 10000 AsPC-1 cells or 20000 NCI-H441 cells per well were seeded into a 96-well cell culture plate, with the volume of the medium in each well being 80 μL.
The cell culture plate was incubated in an incubator at 37° C. with 5% CO2 overnight. A series of 3.16-fold gradient dilutions of a 1000- compound stock solution were prepared with DMSO, and then diluted 200-fold with the complete medium described above to give 5′ compound stock solutions. On the day after cell seeding, 20 μL of the 5× compound stock solution was added to each cell culture well. As a result, the final concentration of the compound in the cell culture well became 1×, and the DMSO content in the well was 0.1%. In addition to the compound-treated wells described above, cell-containing DMSO control wells were also set. A complete medium containing 0.5% DMSO was added at 20 μL/well. After the mixture was well mixed, the culture plate was incubated in the incubator at 37° C. with 5% CO2 for another 3 h. The medium was then removed from the culture wells, and 50 μL of cell lysis buffer (from Advance ERK phospho-T202,Y204 kit) was added to each well. The mixture was well mixed and incubated for 30 min. Then, 16 μL of the mixture was transferred to a white-bottomed, opaque 96-well assay plate, and separately, 16 μL of cell lysis buffer was added to additional wells (serving as blank wells) in the assay plate. After the transfer was completed, 4 μL of p-ERK HTRF antibody mixture (from Advance ERK phospho-T202/Y204 kit) was added to each well of the assay plate, followed by a 4-hour incubation. The HTRF signal values (RLU) were then measured using a microplate reader, and the inhibition rate of the compound against p-ERK levels was calculated as follows: IR (%)=(RLUDMSO−RLUcompound)/(RLUDMSO−RLUblank)×100%, where RLUDMSO is the average HTRF signal value from the DMSO control well samples, RLUblank is the average HTRF signal value from the blank well samples, and RLUcompound is the HTRF signal value from the compound-treated well samples. Using an XLfit software, the IR (%) values were plotted against the logarithm of the compound concentrations, and the dose-response curves were fitted using the four-parameter method to calculate the IC50 values.
(Time-resolved FRET reads energy transfer from a long-lived donor to a nearby acceptor.)
Consider `CCn1c(-c2cc(C#CCN3CCN(C(C)=O)CC3)cnc2[C@H](C)OC)c2c3cc(ccc31)-c1csc(n1)C[C@H](Nc1nnc3cc(C)ccn13)C(=O)N1CCC[C@H](N1)C(=O)OCC(C)(C)C2` (atropisomer, axis not shown; (Ra)) [Compound Z981], for which the IC50 was 2.17 nM.

For the molecule `CCn1c(-c2cc(C3(C(=O)N4CCN(C)CC4)CC3)cnc2[C@H](C)OC)c2c3cc(ccc31)-c1csc(n1)C[C@H](NC(=O)[C@H]1[C@H](C)[C@@H]1C)C(=O)N1CCC[C@H](N1)C(=O)OCC1(CC1)C2` [Compound Z347, (1r,2R,3b)-N-((3′S,4′S,Z)-1′-ethyl-2′-(2-(1-methoxyethyl)-5-(1-(4-methylpiperazine-1-carbonyl)cyclopropyl)pyridin-3-yl)-5′,7′-dioxospiro[cyclopropane-1,10′-8-oxa-2(4,2)-thiazola-1(5,3)-indola-6(1,3)-pyridazinacycloundecaphan]-4-yl)-2,3-dimethylcyclopropane-1-carboxamide], the IC50 came out at 152 nM.

With `CCn1c(-c2cc(N3CCN(CCS(C)(=O)=O)CC3)cnc2[C@H](C)OC)c2c3cc(ccc31)-c1csc(n1)C[C@H](NC(=O)[C@H]1[C@H](C)[C@@H]1C)C(=O)N1CCC[C@H](N1)C(=O)OCC1(CC1)C2` (atropisomer, axis not shown; (Sa)) [Compound Z377, (1r,2R,3S)—N-((3′S,4′S,Z)-1′-ethyl-(Sa)-2′-(2-((S)-1-methoxyethyl)-5-(4-(2-(methylsulfonyl)ethyl)piperazin-1-yl)pyridin-3-yl)-5′,7′-dioxospiro[cyclopropane-1,10′-8-oxa-2(4,2)-thiazola-1(5,3)-indola-6(1,3)-pyridazinacycloundecaphan]-4′-yl)-2,3-dimethylcyclopropane-1-carboxamide], the IC50 amounted to 87.8 nM.

`CCn1c(-c2cc(C#CCN3CCCOCC3)cnc2[C@H](C)OC)c2c3cc(ccc31)-c1csc(n1)C[C@H](NC(=O)[C@H](C(C)C)N(C)S(C)(=O)=NC)C(=O)N1CCC[C@H](N1)C(=O)OCC(C)(C)C2` (mixture of isomers) [Compound Z912, (2S)—N-((6^3S,4S,Z)-1^2-(5-(3-(1,4-oxazepan-4-yl)prop-1-yn-1-yl)-2-((5)-1-methoxyethyl)pyridin-3-yl)-1^1-ethyl-10,10-dimethyl-5,7-dioxo-6^1,6^2,6^3,6^4,6^5,6^6-hexahydro-1^1H-8-oxa-2(4.2)-thiazola-1(5,3)-indola-6(1,3)-pyridazinacycloundecaphane-4-yl)-2-(N,N-dimethylmethylsulfonimidoyl)-3-methylbutanamide]: the IC50 is 1.83 nM.

`CCn1c(-c2cc(C#CCN3CCCOCC3)cnc2[C@H](C)OC)c2c3cc(ccc31)-c1csc(n1)C[C@H](NC(=O)[C@H]1[C@H](C)[C@@H]1C)C(=O)N1CCC[C@H](N1)C(=O)OCC(C)(C)C2` (atropisomer, axis not shown; (Sa)) [Compound Z547, (1r,2R,3S)—N-((6^3S,4S,Z)—(Sa)-1′-(5-(3-(1,4-oxazepan-4-yl)prop-1-yn-1-yl)-2-((S)-1-methoxyethyl)pyridin-3-yl)-1′-ethyl-10,10-dimethyl-5,7-dioxo-6^1,6^2,6^3,6^4,6^5,6^6-hexahydro-1^1H-8-oxa-2(4,2)-thiazola-1(5,3)-indola-6(1,3)-pyridazinacycloundecaphane-4-yl)-2,3-dimethylcyclopropane-1-carboxamide]: the IC50 is 78.1 nM.

Still in this assay, the particulars now being: NCI-H441 cells, 3 h compound incubation, HTRF p-ERK T202/Y204; read-out: H441 p-ERK IC50.
Turning to `CCn1c(-c2cc(C#CCN3CCCOCC3)cnc2[C@H](C)OC)c2c3cc(ccc31)-c1csc(n1)C[C@H](Nc1nnc3cc(Br)ccn13)C(=O)N1CCC[C@H](N1)C(=O)OCC(C)(C)C2` [Compound Z960, (6-S,4S,Z)—(R4)-1^2-(5-(3-(1,4-oxazepan-4-yl)prop-1-yn-1-yl)-2-((S)-1-methoxyethyl)pyridin-3-yl)-4-((7-bromo-[1,2,4]triazolo[4,3-a]pyridin-3-yl)amino)-1^1-ethyl-10,10-dimethyl-6^1,6^2,6^3,6^4,6^5,6^6-hexahydro-1^1H-8-oxa-2(4,2)-thiazola-1(5,3)-indola-6(1,3)-pyridazinacycloundecaphane-5,7-dione], the IC50 came to 5.46 nM.
